Assay results from patent US6503885B1, “Carboxymethylgalactose derivatives” (Otsuka Pharmaceutical Co., Ltd., priority 1998, dated 2003).

Key:
Type in all cases: cell-based
P-selectin-IgG = assay: Binding inhibitory activity test: HL-60 cell binding to immobilized P-selectin-IgG; conditions: 0.3 mM test compound; HL-60 cells; 20 ng P-selectin-IgG per well; average of 5 wells ± SE
L-selectin-IgG = assay: Binding inhibitory activity test: HL-60 cell binding to immobilized L-selectin-IgG; conditions: 0.3 mM test compound; HL-60 cells; 100 ng L-selectin-IgG; average of 5 wells ± SE
Experimental: [The source words this procedure for another target and says it was used here with some conditions changed.] (§1) The binding inhibitory activity of the test compound was measured in terms of the inhibition of binding of premyelocytic leukemia HL-60 cells to immobilized recombinant selectin-IgG fusion proteins by addition of the test compound to the binding reaction system, in accordance with the method described in the above-identified reference.
(§2) Stated more specifically, 20 ng of purified P-selectin-IgG was added to each well of a microtiter plate (96 wells, Nunc Maxisorp) and immobilized. Phosphate buffered saline (PBS) was added to each well to make a total volume of 100 μl and the plate was allowed to stand at 4° C. overnight. The excess solution was removed by aspiration, and non-specific binding sites were blocked with PBS containing 1% bovine serum albumin (BSA) at room temperature for 1 hour. After removal of the blocking solution by aspiration, 0.3 mM of the test compound as dissolved in 100 μl of a binding buffer (RPMI1640), and 10^6 cells/ml of HL-60 cells as suspended in 100 μl of the binding buffer were added to each well. The plate was centrifuged at 500 rotations per minute for 2 minutes at room temperature, and each well was filled with the binding buffer. The plate was carefully sealed with an adhesive tape so as to avoid trapping any air bubbles. The plate was turned upside down and centrifuged at 500 rotations per minute for 10 minutes to remove unbound HL-60 cells. The adhesive tape was peeled off and the buffer was removed by aspiration. The number of cells bound/well was determined using a cell counting kit (WST-1 assay kit, product of Dojin Kagaku K.K.) (M. Ishiyama. M. Shiga, M. Mizoguchi and P. He, Chem. Pharm. Bull., 41, 1118-1122 (1994)).
(§3) The binding inhibition (%) was calculated from the number (M) of bound cells achieved in the test using the test compound and the number (N) of bound cells achieved in the comparative test not using the test compound, according to the following equation:
(§4) Binding inhibition (%)=100×(N−M)/N […]
(§5) The data were expressed as an average value of 5 wells±standard error (SE).

E-selectin-IgG = assay: Binding inhibitory activity test: HL-60 cell binding to immobilized E-selectin-IgG; conditions: 0.3 mM test compound; HL-60 cells; 40 ng E-selectin-IgG; average of 5 wells ± SE
Experimental: [The source words this procedure for another target and says it was used here with some conditions changed.] as §1, §2, §3, §4, §5

## CCCCCCCCCCCCCCC(CCCCCCCCCCCCCC)CO[C@@H]1O[C@H](CO)[C@H](O)[C@H](OS(=O)(=O)O)[C@H]1O [Comparative compound, 2-(tetradecyl)hexadecyl 3-O-sulfo-β-D-galactopyranoside]
P-selectin-IgG
  Binding inhibition (%) P-selectin: 6 ± 3%
L-selectin-IgG
  Binding inhibition (%) L-selectin: 13 ± 3%
E-selectin-IgG
  Binding inhibition (%) E-selectin: 0 ± 5%

## CCCCCCCCCCCCCCC(CCCCCCCCCCCCCC)CO[C@@H]1O[C@H](CO)[C@H](O)[C@H](CC(=O)O)[C@H]1O [Compound of the invention, 2-(tetradecyl)hexadecyl 3-deoxy-3-C-(carboxymethyl)-β-D-glactopyranoside]
P-selectin-IgG
  Binding inhibition (%) P-selectin: 79 ± 3%
L-selectin-IgG
  Binding inhibition (%) L-selectin: 92 ± 3%
E-selectin-IgG
  Binding inhibition (%) E-selectin: 12 ± 8%

## sialyl Lewis-x [SLe^x]
P-selectin-IgG
  Binding inhibition (%) P-selectin: 3 ± 6%
L-selectin-IgG
  Binding inhibition (%) L-selectin: 0 ± 5%
E-selectin-IgG
  Binding inhibition (%) E-selectin: 0 ± 4%
